According to patent US5837548A, “Treatment of inflammation by inhibition of lipid body formation” (Beth Israel Hospital, priority 1995, dated 1998):
Like-named read-outs stand apart in the source and are kept apart here. *1 amine or outer side, *2 acyl side, *3 side chain or, on linkers, in order; H or OH if unused. Where a SMILES comes first, the peptide text is derived from it. Bridges are numbered along the chain shown (N, C = ends). Roman numbers before positions name the chains, in order. [ ]: non-standard residue; d: D form. Actinocin(9to1) = Cc1c2oc3c(C)ccc(C(=O)[*:1])c3nc-2c(C(=O)[*:2])c(N)c1=O; NMeV = CN[CH](C(=O)O)C(C)C; Sar = CNCC(=O)O

Tests used:
human neutrophils = assay: cis-unsaturated fatty acid-induced lipid body formation in human neutrophils (osmium staining, light microscopy enumeration); format: cell-based; settings: for inhibition at 1 µM / inhibition at 10 µM: Homo sapiens, Neutrophil, basal subtracted; for inhibition of arachidonic acid-induced lipid body formation / inhibition of oleic acid-induced lipid body formation: human neutrophils, staurosporine 0.1-1.0 μM, aspirin 10 μg/mL, others as in Tables 1 and 2; for effect on numbers of preformed lipid bodies: neutrophils
Method: Neutrophils were purified from fresh human blood obtained by venipuncture from healthy adult volunteers and collected into acidified citrate. After addition of 6% dextran 70 (McGaw, Irvine, Calif.), RBCs were allowed to sediment for 1 hour at room temperature. The leukocyte-rich supernatant was overlaid onto an equal volume of Ficoll-Paque gradient (Piscataway, N.J.), and centrifuged at 400×g for 20 min. […] Residual RBCs were lysed with hypotonic saline.
Human leukocytes (10^6 cells/mL) were incubated with varying concentrations of arachidonic acid (AA), oleic acid (OA) or vehicle at 37° C. in a 5% CO2 /95% O2 atmosphere, and after 1 hour leukocytes (10^5 cells per slide) were cytocentrifuged (550 rpm, 5 min) onto glass slides. During inhibitory studies, neutrophils were pretreated for 1 hour with varying concentrations of enzyme inhibitors, protein synthesis inhibitors, or vehicle as indicated. When PKC inhibitors were used, the pre-incubation time was reduced to 30 minutes to avoid toxic effects to the cells. […] Stock solutions for A23187, D609, U-73122, and indomethacin were prepared in DMSO and stored at -20° C. Aliquots were diluted in Ca^++ /Mg^++ fee HBSS to the indicated concentration immediately prior to use. […] The morphology of fixed cells was observed, and lipid bodies were enumerated with phase contrast microscopy and a 100× objective lens in 50 consecutively scanned leukocytes.
Results were expressed as mean±SEM and were analyzed statistically by means of the analysis of variance followed by the Newman-Keuls-Student test with the level of significance set at p<0.05. Correlation coefficients were determined by linear regression, and correlation analysis was performed by Fisher's r to z transformation with the level of significance set at p<0.05.
^1 Neutrophils (10^6 /ml) were pretreated with protein kinase C
(actinomycin D, cycloheximide) for 30 min or with phospholipase C
inhibitors (D609, U73122) for 1 h. The cells were then stimulated with
vehicle, arachidonic acid (15 μM), or oleic acid (10 μM), for 1 h.
Results are mean ± SEM from fifty consecutively counted neutrophils.
Statistically significant differences between the agonist alone and the
inhibitor are represented by an asterisk(*). Percent inhibition has been
calculated after subtracting out the basal number of lipid bodies/PMN
present prior to stimulation.
^1 Neutrophils (10^6 /ml) were pretreated with the NSAID or
vehicle for 1 h then stimulated with vehicle, arachidonic acid, or oleic
± SEM from fifty consecutively counted neutrophils. Statistically
significant differences between the agonist alone and the NSAID are
represented by an asterisk (*). Percent inhibition has been calculated
after subtracting out the basal number of lipid bodies/PMN present prior

human leukocytes = assay: cytotoxicity / cell viability by trypan blue dye exclusion; format: cell-based; settings: neutrophils
Method: Human leukocytes (10^6 cells/mL) were incubated with varying concentrations of arachidonic acid (AA), oleic acid (OA) or vehicle at 37° C. in a 5% CO2 /95% O2 atmosphere, and after 1 hour leukocytes (10^5 cells per slide) were cytocentrifuged (550 rpm, 5 min) onto glass slides. During inhibitory studies, neutrophils were pretreated for 1 hour with varying concentrations of enzyme inhibitors, protein synthesis inhibitors, or vehicle as indicated. When PKC inhibitors were used, the pre-incubation time was reduced to 30 minutes to avoid toxic effects to the cells. The cell viability, determined by trypan blue dye exclusion at the end of each experiment, was always greater than 90%. Stock solutions for A23187, D609, U-73122, and indomethacin were prepared in DMSO and stored at -20° C. Aliquots were diluted in Ca^++ /Mg^++ fee HBSS to the indicated concentration immediately prior to use. The final DMSO concentration was always lower than 0.1% and had no effect on lipid body numbers. […] The morphology of fixed cells was observed, and lipid bodies were enumerated with phase contrast microscopy and a 100× objective lens in 50 consecutively scanned leukocytes.

[1] = arachidonic acid 15 μM, inhibitor 1 μM
[2] = arachidonic acid 15 μM, inhibitor 10 μM
[3] = oleic acid 10 μM, inhibitor 1 μM
[4] = oleic acid 10 μM, inhibitor 10 μM

Structure (SMILES) | inhibition at 1 µM (human neutrophils; [1]) [%] | inhibition at 10 µM (human neutrophils; [2]) [%] | inhibition at 1 µM (human neutrophils; [3]) [%] | inhibition at 10 µM (human neutrophils; [4]) [%] | lipid bodies (mean ± SEM)/cell (human neutrophils; [1]) [lipid bodies/cell] | lipid bodies (mean ± SEM)/cell (human neutrophils; [2]) [lipid bodies/cell] | inhibition of arachidonic acid-induced lipid body formation (human neutrophils) | inhibition of oleic acid-induced lipid body formation (human neutrophils) | effect on numbers of preformed lipid bodies (human neutrophils) | lipid bodies (mean ± SEM)/cell (human neutrophils; [3]) [lipid bodies/cell] | lipid bodies (mean ± SEM)/cell (human neutrophils; [4]) [lipid bodies/cell] | cytotoxicity (human leukocytes) | inhibition at 1 µM (human neutrophils; arachidonic acid 15 μM, inhibitor 1 μM, read-out: % inhibition) [%] | inhibition at 10 µM (human neutrophils; arachidonic acid 15 μM, inhibitor 10 μM, read-out: % inhibition) [%] | inhibition at 1 µM (human neutrophils; oleic acid 10 μM, inhibitor 1 μM, read-out: % inhibition) [%] | inhibition at 10 µM (human neutrophils; oleic acid 10 μM, inhibitor 10 μM, read-out: % inhibition) [%]
C[C@@H]1C[C@@H]([C@H](O)CC2CC(=O)NC(=O)C2)C(=O)[C@@H](C)C1 [cycloheximide] | 17 | 30 | 22 | 38 | 9.8 ± 0.3 | 9.2 ± 0.3 | significantly inhibited | significantly inhibited | did not alter numbers of preformed lipid bodies | 9.0 ± 0.3 | 8.3 ± 0.3 | not cytotoxic |  |  |  | 
Cc1c2oc3c(C)ccc(C(=O)NC4C(=O)NC(C(C)C)C(=O)N5CCCC5C(=O)N(C)CC(=O)N(C)C(C(C)C)C(=O)OC4C)c3nc-2c(C(=O)NC2C(=O)NC(C(C)C)C(=O)N3CCCC3C(=O)N(C)CC(=O)N(C)C(C(C)C)C(=O)OC2C)c(N)c1=O (stereo not drawn) [actinomycin D] (I: TVP[Sar][NMeV] / II: TVP[Sar][NMeV]; ester I:1-I:C, II:1-II:C; linker I:N-II:N via Actinocin(9to1); configuration not given here) |  |  |  |  | 8.4 ± 0.3 | 7.6 ± 0.3 | significantly inhibited | significantly inhibited | did not alter numbers of preformed lipid bodies | 8.8 ± 0.3 | 8.1 ± 0.3 | not cytotoxic | 47 | 64 | 26 | 42
